Measured values published in PubChem BioAssay (NCI).
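Each compound was tested at five concentrations against cells in 96-well plates for 48 hours. Abbreviation: GI50, concentration required for 50% inhibition of growth. TGI marks complete inhibition of growth.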

Experiments:
Assay in all cases: NCI tumour cell line growth inhibition, 48 h
[1] = system: OVCAR-3 ovarian
[2] = system: NCI-H460 lung
[3] = system: HCT-116 colon
[4] = system: UO-31 renal
[5] = system: CAKI-1 renal
[6] = system: EKVX NSCLC
[7] = system: COLO 205 colon
[8] = system: SK-OV-3 ovarian
[9] = system: HOP-62 NSCLC
[10] = system: SNB-75 CNS
[11] = system: CCRF-CEM leukemia
[12] = system: SF-268 CNS
[13] = system: HCT-15 colon
[14] = system: HS 578T breast
[15] = system: RXF 393 renal
[16] = system: SF-295 CNS
[17] = system: BT-549 breast
[18] = system: NCI-H23 lung
[19] = system: SK-MEL-2 melanoma
[20] = system: HOP-92 NSCLC
[21] = system: NCI-H226 lung
[22] = system: UACC-257 melanoma
[23] = system: T-47D breast
[24] = system: PC-3 prostate
[25] = system: SR leukemia
[26] = system: MDA-MB-231 breast
[27] = system: RPMI-8226 leukemia
[28] = system: NCI/ADR-RES ovarian
[29] = system: IGROV1 ovarian
[30] = system: MOLT-4 leukemia
[31] = system: SK-MEL-28 melanoma
[32] = system: UACC-62 melanoma
[33] = system: HT29 colon
[34] = system: OVCAR-8 ovarian
[35] = system: OVCAR-4 ovarian
[36] = system: NCI-H522 lung
[37] = system: SF-539 CNS
[38] = system: HCC-2998 colon
[39] = system: SK-MEL-5 melanoma
[40] = system: SW-620 colon
[41] = system: MCF7 breast
[42] = system: U251 CNS
[43] = system: TK-10 renal
[44] = system: HL-60(TB) leukemia
[45] = system: A549 NSCLC
[46] = system: SNB-19 CNS
[47] = system: MALME-3M melanoma
[48] = system: K-562 leukemia
[49] = system: OVCAR-5 ovarian
[50] = system: LOX IMVI melanoma
[51] = system: DU-145 prostate
[52] = system: KM12 colon
[53] = system: 786-0 renal
[54] = system: M14 melanoma
[55] = system: ACHN renal
[56] = system: SN12C renal
[57] = system: MDA-MB-435

Molecule `CC(C)=CCc1c(O)c(CC=C(C)C)c2c(c1O)C(=O)C1=C[C@@H]3C[C@H]4C(C)(C)O[C@@](C/C=C(\C)C(=O)O)(C3=O)[C@@]14O2` has a GI50 [1] of 18.1 µM, a TGI [1] of 34.2 µM and a GI50 [2] of 19.8 µM. It also gave a TGI [2] of 44 µM, a GI50 [3] of 18 µM and a TGI [3] of 34.2 µM. For the same molecule, the GI50 [4] was 14.3 µM, the TGI [4] was 31.8 µM and the GI50 [5] was 29.4 µM. For the same molecule, the TGI [5] was > 100 µM, the GI50 [6] was 27.5 µM and the TGI [6] was > 100 µM. It also gave a GI50 [7] of 19.3 µM, a TGI [7] of 45.5 µM and a GI50 [8] of 59.6 µM. The TGI [8] was > 100 µM, the GI50 [9] was 23.8 µM and the TGI [9] was 58.7 µM. For the same molecule, the GI50 [10] was 31.9 µM, the TGI [10] was > 100 µM and the GI50 [11] was 18.5 µM. For the same molecule, the TGI [11] was 76.5 µM, the GI50 [12] was 26.6 µM and the TGI [12] was > 100 µM. The GI50 [13] was 23.9 µM, the TGI [13] was > 100 µM and the GI50 [14] was 42.6 µM. The TGI [14] was > 100 µM, the GI50 [15] was 21.6 µM and the TGI [15] was 42.2 µM. The GI50 [16] was 33.9 µM, the TGI [16] was > 100 µM and the GI50 [17] was 16.8 µM. The TGI [17] was 33.8 µM, the GI50 [18] was 22.5 µM and the TGI [18] was 69.2 µM. For the same molecule, the GI50 [19] was 19.8 µM, the TGI [19] was 43 µM and the GI50 [20] was 19 µM. The TGI [20] was 45 µM, the GI50 [21] was 25.4 µM and the TGI [21] was 58.9 µM. The GI50 [22] was 21.6 µM, the TGI [22] was 55 µM and the GI50 [23] was 23.6 µM. It also gave a TGI [23] of 79.3 µM, a GI50 [24] of 25 µM and a TGI [24] of 64.8 µM. The GI50 [25] was 16.1 µM, the TGI [25] was > 100 µM and the GI50 [26] was 42.1 µM. The TGI [26] was > 100 µM, the GI50 [27] was 12.8 µM and the TGI [27] was 50.8 µM. The GI50 [28] was 33.3 µM, the TGI [28] was > 100 µM and the GI50 [29] was 26.7 µM. The TGI [29] was 83.2 µM, the GI50 [30] was 25.1 µM and the TGI [30] was 93.4 µM. For the same molecule, the GI50 [31] was 24.8 µM, the TGI [31] was 69.1 µM and the GI50 [32] was 19.9 µM. For the same molecule, the TGI [32] was 50.8 µM, the GI50 [33] was 23.7 µM and the TGI [33] was 64.3 µM. For the same molecule, the GI50 [34] was 28.4 µM, the TGI [34] was > 100 µM and the GI50 [35] was 41.7 µM. The TGI [35] was > 100 µM, the GI50 [36] was 15.9 µM and the TGI [36] was 36 µM. For the same molecule, the GI50 [37] was 17.3 µM, the TGI [37] was 41.2 µM and the GI50 [38] was 19.6 µM. The TGI [38] was 40.1 µM, the GI50 [39] was 18.8 µM and the TGI [39] was 36.1 µM. For the same molecule, the GI50 [40] was 19.9 µM, the TGI [40] was 50.4 µM and the GI50 [41] was 19 µM. For the same molecule, the TGI [41] was > 100 µM, the GI50 [42] was 17.4 µM and the TGI [42] was 38.5 µM. The GI50 [43] was 25.6 µM, the TGI [43] was 50.9 µM and the GI50 [44] was 21.1 µM. For the same molecule, the TGI [44] was 70.3 µM, the GI50 [45] was 38.4 µM and the TGI [45] was > 100 µM. It also gave a GI50 [46] of 30.2 µM, a TGI [46] of 94.4 µM and a GI50 [47] of 18 µM. For the same molecule, the TGI [47] was 50.9 µM, the GI50 [48] was 24 µM and the TGI [48] was > 100 µM. It also gave a GI50 [49] of 32.9 µM, a TGI [49] of 98.1 µM and a GI50 [50] of 14.4 µM. For the same molecule, the TGI [50] was 28.6 µM, the GI50 [51] was 25.9 µM and the TGI [51] was 68 µM. It also gave a GI50 [52] of 21.2 µM, a TGI [52] of 47.1 µM and a GI50 [53] of 18.8 µM. It also gave a TGI [53] of 37.3 µM, a GI50 [54] of 19.9 µM and a TGI [54] of 52.3 µM. The GI50 [55] was 29.7 µM, the TGI [55] was > 100 µM and the GI50 [56] was 29.4 µM. For the same molecule, the TGI [56] was > 100 µM, the GI50 [57] was 23.9 µM and the TGI [57] was 62.9 µM.
